# Measurements reported in US9695155B2, “Herbicidal substituted pyrimidinyloxy benzene compounds” (E. I. DU PONT DE NEMOURS AND COMPANY, priority 2013, dated 2017).
# Key:
# [1] = test system: large (Lg) crabgrass; assay: Test A postemergence; format: in vivo, Digitaria sanguinalis
# Outline: (§1)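 Greenhouse pot test, loam/sand soil. Formulation: non-phytotoxic solvent mix plus surfactant. Pre: directed spray onto soil after sowing. Post: plants at 1–2 leaf, 2–10 cm. Rated visually vs untreated controls at ~10 d, 0 (no effect) to 100 (complete control).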
# [2] = test system: giant foxtail; assay: Test A postemergence; format: in vivo, Setaria faberii
# Outline: as §1
# [3] = test system: morningglory; assay: Test A postemergence; format: in vivo, Ipomoea spp.
# Outline: as §1
# [4] = test system: corn; assay: Test A postemergence; format: in vivo, Zea mays
# Outline: as §1
# [5] = test system: large (Lg) crabgrass; assay: Test C preemergence; format: in vivo, Digitaria sanguinalis
# Outline: (§2)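 Injury was assessed visually against controls 13 to 15 days after application, with 0 meaning no effect and 100 full control; missing entries are shown as a dash. Preemergence sprays hit seeded loam–sand soil, postemergence sprays hit 1- to 4-leaf plants.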
# [6] = test system: yellow nutsedge; assay: Test C preemergence; format: in vivo, Cyperus esculentus
# Outline: as §2
# [7] = test system: pigweed; assay: Test C preemergence; format: in vivo, Amaranthus retroflexus
# Outline: as §2
# [8] = test system: waterhemp; assay: Test C preemergence; format: in vivo, Amaranthus rudis
# Outline: as §2
# [9] = test system: Italian ryegrass; assay: Test C postemergence; format: in vivo, Lolium multiflorum; settings: for Ryegrass, Italian plant response rating: 31 g ai/ha
# Outline: as §2
# [10] = test system: pigweed; assay: Test C postemergence; format: in vivo, Amaranthus retroflexus; settings: for Pigweed plant response rating: 31 g ai/ha
# Outline: as §2
# [11] = test system: kochia; assay: Test C postemergence; format: in vivo, Kochia scoparia
# Outline: as §2
# [12] = test system: velvetleaf; assay: Test C postemergence; format: in vivo, Abutilon theophrasti; settings: for Velvetleaf plant response rating: 31 g ai/ha
# Outline: as §2
# [13] = test system: chickweed; assay: Test C postemergence; format: in vivo, Stellaria media
# Outline: as §2
# [14] = postemergence, visual rating, scale 0 to 100 (0 no effect, 100 complete control), 13 to 15 days
# [15] = 125 g ai/ha, 0 to 100 scale where 0 is no effect and 100 is complete control
# [16] = 500 g ai/ha, 0 to 100 scale where 0 is no effect and 100 is complete control
# [17] = 125 g ai/ha, preemergence, scale 0 (no effect) to 100 (complete control)
# [18] = 250 g ai/ha, preemergence, scale 0 (no effect) to 100 (complete control)
# [19] = Preemergence, 62 g ai/ha, scale 0 to 100, 0 no effect, 100 complete control
# [20] = 125 g ai/ha, postemergence, visual rating, scale 0 to 100 (0 no effect, 100 complete control)
# [21] = Postemergence, 62 g ai/ha, scale 0 to 100 (0 no effect, 100 complete control), 13 to 15 days
# [22] = 31 g ai/ha, postemergence, visual rating, scale 0 to 100 (0 no effect, 100 complete control), 13 to 15 days
smiles,measurement,setting,value
"N#Cc1cccc(Oc2ncc(Cl)cn2)c1-n1cc(OCC(F)(F)F)cn1 [Compound 274, 3-[(5-chloro-2-pyrimidinyl)oxy]-2-[4-(2,2,2-trifluoroethoxy)-1H-pyrazol-1-yl]benzonitrile]",pest or weed control at 125 g/ha,"[1]; Digitaria sanguinalis, post-emergence, 240 h, 125 g ai/ha, 0 to 100 scale, 0 no effect, 100 complete control, read-out: Plant response rating, Crabgrass, Large",90%
same,pest or weed control at 500 g/ha,"[1]; Digitaria sanguinalis, post-emergence, 240 h, 500 g ai/ha, 0 to 100 scale where 0 is no effect and 100 is complete control, read-out: Plant response rating, Crabgrass, Large",90%
same,pest or weed control at 125 g/ha,"[2]; Setaria faberi, post-emergence, 240 h, 125 g ai/ha, 0 to 100 scale, 0 no effect, 100 complete control, read-out: Plant response rating, Foxtail, Giant",90%
same,pest or weed control at 500 g/ha,"[2]; Setaria faberi, post-emergence, 240 h, 500 g ai/ha, 0 to 100 scale where 0 is no effect and 100 is complete control, read-out: Plant response rating, Foxtail, Giant",90%
same,pest or weed control at 125 g/ha,"[3]; Ipomoea, post-emergence, 240 h, 125 g ai/ha, 0 to 100 scale, 0 no effect, 100 complete control, read-out: Plant response rating, Morningglory",90%
same,pest or weed control at 500 g/ha,"[3]; Ipomoea, post-emergence, 240 h, 500 g ai/ha, 0 to 100 scale where 0 is no effect and 100 is complete control, read-out: Plant response rating, Morningglory",100%
same,"Corn plant response rating (crop injury, 0 = no effect, 100 = complete kill) at 125 g/ha","[4]; Zea mays, post-emergence, 240 h, 125 g ai/ha, 0 to 100 scale, 0 no effect, 100 complete control",80%
same,"Corn plant response rating (crop injury, 0 = no effect, 100 = complete kill) at 500 g/ha","[4]; Zea mays, post-emergence, 240 h, 500 g ai/ha, 0 to 100 scale where 0 is no effect and 100 is complete control",90%
same,pest or weed control at 16 g/ha,"[5]; Digitaria sanguinalis, pre-emergence, 16 g ai/ha, preemergence, scale 0 to 100 (0 no effect, 100 complete control), read-out: Crabgrass, Large plant response rating",100%
same,pest or weed control at 125 g/ha,"[5]; Digitaria sanguinalis, pre-emergence, 125 g ai/ha, preemergence, scale 0 (no effect) to 100 (complete control), read-out: Crabgrass, Large plant response rating",100%
same,pest or weed control at 62 g/ha,"[5]; Digitaria sanguinalis, pre-emergence, Preemergence, 62 g ai/ha, scale 0 to 100, 0 no effect, 100 complete control, read-out: Plant response rating, Crabgrass, Large",100%
same,pest or weed control at 16 g/ha,"[6]; Cyperus, pre-emergence, 16 g ai/ha, preemergence, scale 0 to 100 (0 no effect, 100 complete control), read-out: Nutsedge, Yellow plant response rating",20%
same,pest or weed control at 125 g/ha,"[6]; Cyperus, pre-emergence, 125 g ai/ha, preemergence, scale 0 (no effect) to 100 (complete control), read-out: Nutsedge, Yellow plant response rating",95%
same,pest or weed control at 62 g/ha,"[6]; Cyperus, pre-emergence, Preemergence, 62 g ai/ha, scale 0 to 100, 0 no effect, 100 complete control, read-out: Plant response rating, Nutsedge, Yellow",85%
same,pest or weed control at 16 g/ha,"[7]; Amaranthus retroflexus, pre-emergence, 16 g ai/ha, preemergence, scale 0 to 100 (0 no effect, 100 complete control), read-out: Pigweed plant response rating",100%
same,pest or weed control at 125 g/ha,"[7]; Amaranthus retroflexus, pre-emergence, 125 g ai/ha, preemergence, scale 0 (no effect) to 100 (complete control), read-out: Pigweed plant response rating",100%
same,pest or weed control at 62 g/ha,"[7]; Amaranthus retroflexus, pre-emergence, Preemergence, 62 g ai/ha, scale 0 to 100, 0 no effect, 100 complete control, read-out: Plant response rating, Pigweed",100%
same,pest or weed control at 16 g/ha,"[8]; Amaranthus tuberculatus, pre-emergence, 16 g ai/ha, preemergence, scale 0 to 100 (0 no effect, 100 complete control), read-out: Waterhemp plant response rating",100%
same,pest or weed control at 125 g/ha,"[8]; Amaranthus tuberculatus, pre-emergence, 125 g ai/ha, preemergence, scale 0 (no effect) to 100 (complete control), read-out: Waterhemp plant response rating",100%
same,pest or weed control at 62 g/ha,"[8]; Amaranthus tuberculatus, pre-emergence, Preemergence, 62 g ai/ha, scale 0 to 100, 0 no effect, 100 complete control, read-out: Plant response rating, Waterhemp",100%
same,"Ryegrass, Italian plant response rating",[9]; [14],5
same,pest or weed control at 16 g/ha,"[9]; Lolium multiflorum, post-emergence, 16 g ai/ha, postemergence, 0 is no effect, 100 is complete control, read-out: Plant response rating (0 to 100), Ryegrass, Italian",5%
same,pest or weed control at 125 g/ha,"[9]; Lolium multiflorum, post-emergence, 125 g ai/ha, postemergence, visual rating, scale 0 to 100 (0 no effect, 100 complete control), read-out: Plant response rating, Ryegrass, Italian",35%
same,pest or weed control at 62 g/ha,"[9]; Lolium multiflorum, post-emergence, Postemergence, 62 g ai/ha, scale 0 to 100 (0 no effect, 100 complete control), 13 to 15 days, read-out: Plant response rating, Ryegrass, Italian",30%
same,Pigweed plant response rating,[10]; [14],85
same,pest or weed control at 16 g/ha,"[10]; Amaranthus retroflexus, post-emergence, 16 g ai/ha, postemergence, 0 is no effect, 100 is complete control, read-out: Plant response rating (0 to 100), Pigweed",95%
same,pest or weed control at 125 g/ha,"[10]; Amaranthus retroflexus, post-emergence, 125 g ai/ha, postemergence, visual rating, scale 0 to 100 (0 no effect, 100 complete control), read-out: Plant response rating, Pigweed",98%
same,pest or weed control at 62 g/ha,"[10]; Amaranthus retroflexus, post-emergence, Postemergence, 62 g ai/ha, scale 0 to 100 (0 no effect, 100 complete control), 13 to 15 days, read-out: Plant response rating, Pigweed",90%
same,pest or weed control at 16 g/ha,"[11]; Bassia scoparia, post-emergence, 16 g ai/ha, postemergence, 0 is no effect, 100 is complete control, read-out: Plant response rating (0 to 100), Kochia",85%
same,pest or weed control at 31 g/ha,"[11]; Bassia scoparia, post-emergence, 31 g ai/ha, postemergence, visual rating, scale 0 to 100 (0 no effect, 100 complete control), 13 to 15 days, read-out: Kochia plant response rating",90%
same,pest or weed control at 125 g/ha,"[11]; Bassia scoparia, post-emergence, 125 g ai/ha, postemergence, visual rating, scale 0 to 100 (0 no effect, 100 complete control), read-out: Plant response rating, Kochia",100%
same,pest or weed control at 62 g/ha,"[11]; Bassia scoparia, post-emergence, Postemergence, 62 g ai/ha, scale 0 to 100 (0 no effect, 100 complete control), 13 to 15 days, read-out: Plant response rating, Kochia",100%
same,Velvetleaf plant response rating,[12]; [14],50
same,pest or weed control at 16 g/ha,"[12]; Abutilon theophrasti, post-emergence, 16 g ai/ha, postemergence, 0 is no effect, 100 is complete control, read-out: Plant response rating (0 to 100), Velvetleaf",30%
same,pest or weed control at 125 g/ha,"[12]; Abutilon theophrasti, post-emergence, 125 g ai/ha, postemergence, visual rating, scale 0 to 100 (0 no effect, 100 complete control), read-out: Plant response rating, Velvetleaf",75%
same,pest or weed control at 62 g/ha,"[12]; Abutilon theophrasti, post-emergence, Postemergence, 62 g ai/ha, scale 0 to 100 (0 no effect, 100 complete control), 13 to 15 days, read-out: Plant response rating, Velvetleaf",65%
same,pest or weed control at 16 g/ha,"[13]; Stellaria media, post-emergence, 16 g ai/ha, postemergence, 0 is no effect, 100 is complete control, read-out: Plant response rating (0 to 100), Chickweed",70%
same,pest or weed control at 31 g/ha,"[13]; Stellaria media, post-emergence, 31 g ai/ha, postemergence, visual rating, scale 0 to 100 (0 no effect, 100 complete control), 13 to 15 days, read-out: Chickweed plant response rating",70%
same,pest or weed control at 125 g/ha,"[13]; Stellaria media, post-emergence, 125 g ai/ha, postemergence, visual rating, scale 0 to 100 (0 no effect, 100 complete control), read-out: Plant response rating, Chickweed",98%
same,pest or weed control at 62 g/ha,"[13]; Stellaria media, post-emergence, Postemergence, 62 g ai/ha, scale 0 to 100 (0 no effect, 100 complete control), 13 to 15 days, read-out: Plant response rating, Chickweed",90%
N#Cc1cnn(-c2c(C#N)cccc2Oc2ncc(Cl)cn2)c1 [Compound 200],"Crabgrass, Large plant response rating",[1]; [15],90
same,"Plant response rating, Crabgrass, Large",[1]; [16],90
same,"Foxtail, Giant plant response rating",[2]; [15],90
same,"Plant response rating, Foxtail, Giant",[2]; [16],90
same,Morningglory plant response rating,[3]; [15],90
same,"Plant response rating, Morningglory",[3]; [16],100
same,Corn plant response rating,[4]; [15],50
same,"Plant response rating, Corn",[4]; [16],60
same,"Crabgrass, Large plant response rating",[5]; [17],100
same,"Crabgrass, Large plant response rating",[5]; [18],100
same,"Plant response rating, Crabgrass, Large",[5]; [19],100
same,"Nutsedge, Yellow plant response rating",[6]; [17],90
same,"Nutsedge, Yellow plant response rating",[6]; [18],95
same,"Plant response rating, Nutsedge, Yellow",[6]; [19],40
same,Pigweed plant response rating,[7]; [17],100
same,Pigweed plant response rating,[7]; [18],100
same,"Plant response rating, Pigweed",[7]; [19],100
same,Waterhemp plant response rating,[8]; [17],100
same,Waterhemp plant response rating,[8]; [18],100
same,"Plant response rating, Waterhemp",[8]; [19],100
same,"Ryegrass, Italian plant response rating",[9]; [14],5
same,"Plant response rating, Ryegrass, Italian",[9]; [20],5
same,"Plant response rating (0 to 100), Ryegrass, Italian","[9]; 250 g ai/ha, postemergence",5
same,"Plant response rating, Ryegrass, Italian",[9]; [21],10
same,Pigweed plant response rating,[10]; [14],75
same,"Plant response rating, Pigweed",[10]; [20],95
same,"Plant response rating (0 to 100), Pigweed","[10]; 250 g ai/ha, postemergence",95
same,"Plant response rating, Pigweed",[10]; [21],90
same,Kochia plant response rating,[11]; [22],80
same,"Plant response rating, Kochia",[11]; [20],98
same,"Plant response rating (0 to 100), Kochia","[11]; 250 g ai/ha, postemergence",100
same,"Plant response rating, Kochia",[11]; [21],95
same,Velvetleaf plant response rating,[12]; [14],20
same,"Plant response rating, Velvetleaf",[12]; [20],75
same,"Plant response rating (0 to 100), Velvetleaf","[12]; 250 g ai/ha, postemergence",70
same,"Plant response rating, Velvetleaf",[12]; [21],50
same,Chickweed plant response rating,[13]; [22],55
same,"Plant response rating, Chickweed",[13]; [20],95
same,"Plant response rating (0 to 100), Chickweed","[13]; 250 g ai/ha, postemergence",98
same,"Plant response rating, Chickweed",[13]; [21],75
